Data reported in patent US10179777B2, “3-(1H-benzimidazol-2-yl)-1H-pyridin-2-one derivatives” (MERCK PATENT GMBH, priority 2015, dated 2019).

Legend:
[1] = biological target: T1, ALK1 (GST-modified kinase domain ACVRL1 (139-503)) (Homo sapiens, UniProt P37023); test: ALK1 kinase inhibition assay (33P-ATP filter binding, Reaction Biology); type: biochemical; conditions: casein substrate, 100 μM ATP (Km ATP), 120 min ambient temperature
T1 construct: N-terminally GST-modified kinase domain ACVRL1 (139-503); GST (N)
T1 sequence (P37023 139-503): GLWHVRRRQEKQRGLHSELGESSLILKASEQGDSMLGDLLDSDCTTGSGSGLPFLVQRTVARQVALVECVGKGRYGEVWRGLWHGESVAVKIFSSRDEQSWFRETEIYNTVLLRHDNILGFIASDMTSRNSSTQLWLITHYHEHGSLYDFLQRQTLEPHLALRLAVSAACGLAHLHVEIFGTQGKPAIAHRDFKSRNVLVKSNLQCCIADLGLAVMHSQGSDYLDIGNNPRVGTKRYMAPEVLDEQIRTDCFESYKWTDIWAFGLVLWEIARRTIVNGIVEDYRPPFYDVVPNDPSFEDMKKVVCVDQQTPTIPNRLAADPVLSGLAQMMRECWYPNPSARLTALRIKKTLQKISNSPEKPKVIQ
Experimental: (§1) The protein sequences of the kinases targeted and accompanying information are described in publically available data base http://www.uniprot.org/uniprot/for ALK1 www.uniprot.org/uniprot/P37023, for ALK2 www.uniprot.org/uniprot/Q04771 and for ALK5 www.uniprot.org/uniprot/P36897. IC50 determination of the novel inhibitors described was performed at Reaction Biology Corp., Malvern, Pa., USA, with assay conditions open to public at www.reactionbiology.com/webapps/site/KinaseDetail.aspx?page=Kinases&id=1, and www.reactionbiology.com/webapps/site/Kinase Assay Protocol.aspx. In addition, they were specified previously in Anastassiadis et al. Nat. Biotechnol. 29(11): 1039-1045. doi:10.1038/nbt.2017.
A1) ALK1 Kinase Inhibition Assay
(§2) was performed with N-terminally GST-modified kinase domain ACVRL1 (139-503) and 20 mg/ml Casein as substrate in reaction buffer of 20 mM HEPES pH 7.5, 10 mM MgCl2, 1 mM EGTA, 0.02% Brij, 0.02 mg/ml BSA, 0.1 mM Na3VO4, 2 mM DTT, 1% DMSO. […] Reactions were carried out at ambient temperature for 120 min, followed by spotting of the reactions onto P81 ion exchange filter paper (Whatman Inc., Picataway, N.J., USA). Unbound phosphate was removed by extensive washing of filters in 0.75% phosphoric acid. After subtraction of background derived from control reactions without enzyme activity, kinase activity data was expressed as the percent remaining kinase activity in test samples compared to vehicle (DMSO) reactions. IC50 values and curve fits were obtained using Prism (GraphPad Software).

[2] = biological target: T2, ALK2 (GST-modified kinase domain ACVR1(145-509)) (Homo sapiens, UniProt Q04771); test: ALK2 kinase inhibition assay (33P-ATP filter binding, Reaction Biology); type: biochemical; conditions: casein substrate, 20 μM ATP (Km ATP), 120 min ambient temperature
T2 construct: N-terminally GST-modified kinase domain ACVR1(145-509); GST (N)
T2 sequence (Q04771 145-509): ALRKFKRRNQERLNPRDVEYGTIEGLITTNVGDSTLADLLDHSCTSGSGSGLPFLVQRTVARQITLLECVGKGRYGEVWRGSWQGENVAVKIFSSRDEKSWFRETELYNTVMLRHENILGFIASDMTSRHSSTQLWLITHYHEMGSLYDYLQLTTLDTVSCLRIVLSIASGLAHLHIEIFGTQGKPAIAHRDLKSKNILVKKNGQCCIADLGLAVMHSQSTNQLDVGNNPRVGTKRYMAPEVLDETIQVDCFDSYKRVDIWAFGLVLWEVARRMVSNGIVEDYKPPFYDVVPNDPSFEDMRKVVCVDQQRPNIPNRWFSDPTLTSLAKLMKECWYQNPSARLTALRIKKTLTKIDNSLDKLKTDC
Experimental: as §1
A2) ALK2 Kinase Inhibition Assay
as §2, with “performed similar to procedure A1” for “performed”, “domain ACVR1(145-509)” for “domain ACVRL1 (139-503)”, “and 1” for “and 20”

[3] = system: ALK1-mediated SMAD1/5 phosphorylation in HUVEC cells; test: Cell-based immunofluorescence assay for ALK1-mediated SMAD1/5 phosphorylation in HUVEC cells; conditions: Homo sapiens, 1.5 ng/ml BMP-9 with compound for 2 h, % nuclei with pSMAD1/5 signal, read-out: Smad 1/5 IC50
From the text: In vitro cell-based Immunofluorescence-Assay for identification of inhibitors of ALK1-mediated SMAD1/5 phosphorylation in HUVEC cells:
ALK1 is a type I cell-surface receptor for the TGF-β superfamily of ligands. In adults ALK1 is mainly expressed on activated endothelial cells, e.g. during wound healing or in tumor angiogenesis. BMP9 and BMP10 are high affinity ligands for ALK1.
BMP9 and BMP10 binding leads to the phosphorylation of so-called Smad1 at Ser463 and Ser465 in the carboxy-terminal motif SSXS, as well as Smad5 and Smad8 at their corresponding sites. These phosphorylated Smads dimerize with the coactivating Smad4 and translocate to the nucleus, where they stimulate transcription of target genes.
Primary endothelial cells (HUVEC: Human Umbilical Vein Endothelial Cells; supplier Promocell) are cultivated in the culture medium obtained from Promocell (with supplements corresponding to 5% FCS) for maximum 5 passages, seeded into black 384-well culture plates with clear bottom (3000 cells/well/30 μl), and incubated for 16-24 hours at 37° C., 5% CO2 and 90% rH.
The following day cells were serum-starved for 2-3 h in order to stop TGF-ß-mediated signalling derived from ligands present in FBS. 1.5 ng/ml BMP-9 was than added in parallel with test compounds for 2 h at 37° C., 5% CO2 in order to identify compounds which block functional activity of ALK1 leading to phosphorylation and nuclear translocation of SMAD1/5/8.
After fixation (15 min 4% Formaldehyd in PBS) and permeabilization (10 min 0.2% Triton X-100 in PBS) an indirect immunocytochemical staining is performed with a specific Phospho-Smad1/5 (Ser463/465) antibody (Cell Signaling #9516) and Alexa488-labelled secondary anti-rabbit-IgG-antibody. DNA staining with Propidium Iodide allowed parallel cell counting. Image acquisition and analysis was performed on an MDS ImageXpress Ultra confocal High Content Reader using the image analysis software MetaXpress. Final read-out were % nuclei with a pSMAD1/5 signal above a defined background.
The final DMSO concentration in the assay was 0.5%. DMSO-treated HUVEC cells served as neutral control (=0%) and cells treated with 10 μM of a reference inhibitor described in a patent served as inhibitor control (=−100%). Raw data were normalised to the neutral and inhibitory references. The assay was performed as dose response (10 compound dilutions, 1 nM-30 μM).

Row | SMILES | IC50 [1] [µM] | IC50 [2] [nM] | IC50 [3] [µM]
1 | O=c1[nH]cc(-c2ccnc3ccccc23)cc1-c1nc2cc(N3CCNCC3)ccc2[nH]1 [Compound A14, 3-(6-Piperazin-1-yl-1H-benzimidazol-2-yl)-5-quinolin-4-yl-1H-pyridin-2-one] | – | – | 5.7
2 | O=c1[nH]cc(-c2cc(CO)ccc2Cl)cc1-c1nc2cc(N3CCOCC3)ccc2[nH]1 [Compound A11, 5-(2-Chloro-5-hydroxymethyl-phenyl)-3-(5-morpholin-4-yl-1H-benzimidazol-2-yl)-1H-pyridin-2-one] | – | – | 6.5
3 | COc1ccc2[nH]c(-c3cc(-c4ccnc5[nH]ccc45)c[nH]c3=O)nc2c1 [Compound A42, 3-(5-Methoxy-1H-benzimidazol-2-yl)-5-(1H-pyrrolo[2,3-b]pyridin-4-yl)-1H-pyridin-2-one] | – | – | 7.9
4 | O=c1[nH]cc(-c2ccnc3ccccc23)cc1-c1nc2cc(N3CCOCC3)ccc2[nH]1 [Compound A9, 3-(6-Morpholin-4-yl-1H-benzimidazol-2-yl)-5-quinolin-4-yl-1H-pyridin-2-one] | – | – | 5.7
5 | CN1C2CCC1CN(c1ccc3[nH]c(-c4cc(-c5ccnc6[nH]ccc56)c[nH]c4=O)nc3c1)C2 [Compound A53, 3-[6-(8-Methyl-3,8-diaza-bicyclo[3.2.1]oct-3-yl)-1H-benzimidazol-2-yl]-5-(1H-pyrrolo[2,3-b]pyridin-4-yl)-1H-pyridin-2-one] | – | – | 2.8
6 | O=c1[nH]cc(-c2ccnc3ccccc23)cc1-c1nc2ccccc2[nH]1 [Compound A2, 3-(1H-Benzimidazol-2-yl)-5-quinolin-4-yl-1H-pyridin-2-one] | 1.4 | 630 | –
7 | O=c1[nH]cc(-c2ccnc3[nH]ccc23)cc1-c1nc2ccccc2[nH]1 [Compound A39, 3-(1H-Benzimidazol-2-yl)-5-(1H-pyrrolo[2,3-b]pyridin-4-yl)-1H-pyridin-2-one] | 0.19 | 120 | –
8 | O=c1[nH]cc(-c2ccnc3[nH]ccc23)cc1-c1nc2cc(N3CC4CCC(C3)N4)ccc2[nH]1 [Compound A46, 3-[6-(3,8-Diaza-bicyclo[3.2.1]oct-3-yl)-1H-benzimidazol-2-yl]-5-(1H-pyrrolo-[2,3-b]pyridin-4-yl)-1H-pyridin-2-one] | – | – | 4.4

The next lines start with results.

Row | IC50 [1] [µM] | IC50 [2] [nM] | SMILES | IC50 [3] [µM]
9 | 8.9 | – | O=c1[nH]cc(-c2ccncc2)cc1-c1nc2ccc(Cl)cc2[nH]1 [Compound A3, 5-(5-Chloro-1H-benzimidazol-2-yl)-1H-[3,4′]bipyridinyl-6-one] | –
10 | 0.95 | 430 | O=c1[nH]cc(-c2ccnc3ccccc23)cc1-c1nc2cc(Oc3ccncc3)ccc2[nH]1 [Compound A10, 3-[5-(Pyridin-4-yloxy)-1H-benzimidazol-2-yl]-5-quinolin-4-yl-1H-pyridin-2-one] | –
11 | 5.5 | 3400 | CN1CCN(c2ccc3[nH]c(-c4cc(-c5cccnc5)c[nH]c4=O)nc3c2)CC1 [Compound A31, 5-[5-(4-Methyl-piperazin-1-yl)-1H-benzimidazol-2-yl]-1H-[3,3′]bipyridinyl-6-one] | –
12 | 3.5 | – | O=c1[nH]cc(-c2c[nH]c3ccccc23)cc1-c1nc2cc(N3CCNCC3)ccc2[nH]1 [Compound A15, 5-(1H-Indol-3-yl)-3-(6-piperazin-1-yl-1H-benzimidazol-2-yl)-1H-pyridin-2-one] | –
13 | 1.8 | 710 | CN1CCN(c2ccc3[nH]c(-c4cc(-c5cnn(C)c5)c[nH]c4=O)nc3c2)CC1 [Compound A30, 3-[5-(4-Methyl-piperazin-1-yl)-1H-benzimidazol-2-yl]-5-(1-methyl-1H-pyrazol-4-yl)-1H-pyridin-2-one] | –
14 | 3.1 | – | CCN(CC)CCNC(=O)c1ccc2nc(-c3cc(-c4ccncc4)c[nH]c3=O)[nH]c2c1 [Compound A57, 2-(6-Oxo-1,6-dihydro-[3,4′]bipyridinyl-5-yl)-3H-benzimidazole-5-carboxylic acid (2-diethylamino-ethyl)-amide] | –
15 | 9.2 | 5400 | Cc1ccc2nc(-c3cc(-c4ccncc4)c[nH]c3=O)[nH]c2c1 [Compound A4, 5-(5-Methyl-1H-benzimidazol-2-yl)-1H-[3,4′]bipyridinyl-6-one] | –
16 | 3.3 | 3100 | CN1CCC(NC(=O)c2ccc3[nH]c(-c4cc(-c5ccncc5)c[nH]c4=O)nc3c2)CC1 [Compound A58, 2-(6-Oxo-1,6-dihydro-[3,4′]bipyridinyl-5-yl)-3H-benzimidazole-5-carboxylic acid (1-methyl-piperidin-4-yl)-amide] | –
17 | 2.6 | 1100 | NCc1ccc2[nH]c(-c3cc(-c4ccncc4)c[nH]c3=O)nc2c1 [Compound A54, 5-(5-Aminomethyl-1H-benzimidazol-2-yl)-1H-[3,4′]bipyridinyl-6-one] | –
18 | 6.8 | 3100 | CC(=O)NCc1ccc2[nH]c(-c3cc(-c4ccncc4)c[nH]c3=O)nc2c1 [Compound A55, N-[2-(6-Oxo-1,6-dihydro-[3,4′]bipyridinyl-5-yl)-1H-benzimidazol-5-ylmethyl]-acetamide] | –
19 | – | 99 | CN1CCN(c2ccc3[nH]c(-c4cc(-c5ccncc5)c[nH]c4=O)nc3c2)CC1 [Compound A28, 5-[5-(4-Methyl-piperazin-1-yl)-1H-benzimidazol-2-yl]-1H-[3,4′]bipyridinyl-6-one] | –
20 | 10 | 5700 | Cc1cccc2[nH]c(-c3cc(-c4ccncc4)c[nH]c3=O)nc12 [Compound A5, 5-(4-Methyl-1H-benzimidazol-2-yl)-1H-[3,4′]bipyridinyl-6-one] | –
